From patent publication US12522596B2, “Compounds as GLP-1R agonists” (Terns Pharmaceuticals, Inc., priority 2021, dated 2026) come the findings set out here.

The structures appear in SMILES notation.

Series [1] can be described thus: Metabolic stability in human hepatocytes. In kind it is in vitro ADME. To be noted: cryopreserved hepatocytes; human hepatocytes, 1 μM. How it is done:
(§1) Test compounds were incubated in rat and human hepatocytes and stability was assessed from the substrate […] approach. Test compounds were dissolved in dimethyl sulfoxide (DMSO) to create a 10 mM Stock, and then further diluted to create a 1000× Working Stock of 1 mM with DMSO in 96-well plates for test compounds and the positive control (midazolam). Vials containing cryopreserved hepatocytes were removed from the liquid nitrogen tank and immediately immersed in a 37° C. water bath. The vials were shaken gently until the contents had thawed and were then immediately emptied into 48 mL of pre-warmed HT Medium in a 50 mL conical tube. Cells remaining in the vial were resuspended with 1.0 mL of pre-warmed HT Medium and added to the conical tube. The tube was capped and then gently inverted several times to resuspend the hepatocytes. The cell suspension was centrifuged at 50×g at room temperature for 5 minutes and the supernatant discarded. The cell pellet was loosened by gently swirling the centrifuge tube and was re-suspended in 4 mL of warm Dulbecco's Modified Eagle medium (DMEM). Cell density was determined by a cell counter by Nexcelom, and DMEM medium was added to obtain a target density of 1×10^6 cells/mL. The assay was carried out in 96-well microtiter plates. Test Compounds were incubated at 1 μM with 1×10^6 cells/mL hepatocytes in DMEM for 0, 30, 60, 120 and 240 minutes. The incubation was carried out with gentle shaking at 37° C. under a humid atmosphere of 95% air/5% CO2. The volume of the incubation mixture was 37 μL with a final 0.1% DMSO. At each of the time points, the incubation was stopped by adding 150 μL quenching solution (100% acetonitrile, 0.1% formic acid containing bucetin as an internal standard for positive ESI mode). Subsequently, the mixtures were vortexed for 20 min and centrifuged at 4,000 RPM at 10° C. The supernatant (80 μL) was transferred to a clean 96-well plate and analyzed by LC-MS/MS. Midazolam at 1 μM with a final 0.1% DMSO was included as a positive control to verify assay performance. The percent parent remaining, intrinsic and predicted hepatic clearance and t1/2 were calculated. All samples were analyzed by LC-MS/MS using an AB Sciex API 4000 instrument, coupled to a Shimadzu LC-20AD LC Pump system. Separation was achieved using a Waters Atlantis T3 dC18 reverse phase HPLC column (20 mm×2.1 mm) at a flow rate of 0.5 mL/min. The mobile phase consisted of 0.1% formic acid in water (solvent A) and 0.1% formic acid in 100% acetonitrile (solvent B). Elution conditions are detailed below.
(§2) The ion optics of each test compound were optimized for their declustering potential (DP), […] (CE), collision-cell exit potential (CXP) and used in a selected ion monitoring experiment in the positive ion mode. The peak area ratio of each test compound to internal standard was then evaluated for stability. The extent of metabolism was calculated based on the disappearance of the test compound, compared to its initial concentration. The initial rates of clearance of the test compound were calculated using the linear regression plot of semi-log % remaining of the compound versus time. The elimination rate constant (k) of the linear regression plot was then used to determine t1/2 and the intrinsic clearance (CLint) using the following formula, where Chepatocyte (million cells/mL) is the cell density of the incubation:
(§3) The predicted hepatic clearance (CLhep) was calculated using the well stirred method with the following formula with CLint(in vivo) normalized based on liver weight: […]
(§4) The relevant physiological parameters of liver weight, blood flow, and hepatocellularity for various species are listed below: […]

Series [2] can be described thus: Caco-2 passive permeability and efflux ratio. In kind it is in vitro ADME. To be noted: human; for efflux ratio at 120 min, 5 μM: pH 7.4, Caco-2, Papp (B-to-A)/Papp (A-to-B), read-out: Efflux Ratio (ER); for Papp at 120 min, 5 μM: Caco-2, 5 μM, pH 7.4, 120 minutes. How it is done: Caco-2 cells (clone C2BBe1) were obtained from American Type Culture Collection (Manassas, VA). Cell monolayers were grown to confluence on collagen-coated, microporous membranes in 12-well assay plates. Details of the plates and their certification are shown below. The permeability assay buffer was Hanks' balanced salt solution containing 10 mM HEPES and 15 mM glucose at a pH of 7.4. The buffer in the receiver chamber also contained 1% bovine serum albumin. The dosing solution concentration was 5 μM of test article in the assay buffer. Cell monolayers were dosed on the apical side (A-to-B) or basolateral side (B-to-A) and incubated at 37° C. with 5% CO2 in a humidified incubator. Samples were taken from the donor and receiver chambers at 120 minutes. Each determination was performed in duplicate. The flux of lucifer yellow was also measured post-experimentally for each monolayer to ensure no damage was inflicted to the cell monolayers during the flux period. All samples were assayed by LC-MS/MS using electrospray ionization. The apparent permeability (Papp) and percent recovery were calculated as follows:
[formula] [formula] where, dCr/dt is the slope of the cumulative receiver concentration versus time in μM s^−1; Vr is the volume of the receiver compartment in cm^3; Vd is the volume of the donor compartment in cm^3; A is the area of the insert (1.13 cm^2 for 12-well); CA is the average of the nominal dosing concentration and the measured 120-minute donor concentration in μM; CN is the nominal concentration of the dosing solution in μM; Cr^final is the cumulative receiver concentration in μM at the end of the incubation period; Cd^final is the concentration of the donor in μM at the end of the incubation period. Efflux ratio (ER) is defined as Papp (B-to-A)/Papp (A-to-B).
On the technique in general: Passage across Caco-2 layers is used to estimate intestinal permeability.

Series [3] in a line: Metabolic stability in rat hepatocytes. To be noted: cryopreserved hepatocytes, 1 μM. In kind it is in vitro ADME. The procedure:
as §1, §2, §3, §4

The subject of series [4] is rat hepatocytes. Briefly: Metabolic stability in rat hepatocytes. In kind it is in vitro ADME. The procedure:
as §1, §2, §3, §4

The nature of series [5]: Rat pharmacokinetics, oral dosing. In kind it is in vivo, Sprague-Dawley rats. To be noted: rat; for AUC(0-t) / Cmax / half-life: male, Sprague-Dawley, plasma, po, 3 mg/kg, rat plasma. The procedure: Oral dosing: Compounds were formulated at 0.3 mg/mL or 0.6 mg/mL in a solution comprising 5% polyethylene glycol 400 and 95% (12% (w/v) sulfobutyl-β-cyclodextrin in water) (v/v). Formulated compounds were administered to male, 7-11 week old Sprague-Dawley rats by oral gavage at a dose of 3 mg/kg.
Sample collection: Blood collections of about 0.2 mL per time point were performed from jugular vein or other suitable site of each animal, into pre-chilled commercial EDTA-K2 tubes and placed on wet ice until centrifugation. Blood samples were processed for plasma by centrifugation at approximately 4° C., 3,200 g for 10 min. Plasma was collected and transferred into pre-labeled 96 well plate or polypropylene tubes, quick frozen over dry ice and kept at −60° C. or lower until LC-MS/MS analysis.
Data analysis: Plasma concentration versus time data was plotted in graph and analyzed by non-compartmental approaches using the Phoenix WinNonlin 6.3 software program. Related PK parameters were calculated according to dosing route, e.g., CL, Vdss and C0 for intravenous administration, Cmax, Tmax or % F for extravascular administration, and T1/2, AUC(0-t), AUC(0-inf), MRT(0-t), MRT(0-inf) for all routes.

In series [1], `CC1(c2ccc(C#N)cc2F)Oc2cccc(C3CCN(Cc4nc5ccc(C(=O)O)cc5n4Cc4cncs4)CC3)c2O1` (stereo not shown) [Compound 31] gave an intrinsic clearance (CLint scaled) at 1 μM of 17.5 ± 1.33 mL/min/kg and a half-life at 1 μM of 2.29 ± 0.174 h. For the same compound, in series [2], the efflux ratio at 120 min, 5 μM was 1.31 and the apparent permeability (Papp) at 120 min, 5 μM stood at 16.8 ×10⁻⁶ cm/s. In series [3], the CLint scaled at 1 μM was 30.2 ± 1.5 mL/min/kg and the half-life at 1 μM is 1.83 ± 0.0907 h. In series [4], the “CLint relative to reference standard” value was “significantly lower” and the “Half-life relative to reference” value was “significantly higher”.

Take `N#Cc1ccc(COc2cccc(C3CCN(Cc4nc5ccc(C(=O)O)cc5n4C[C@@H]4CCO4)CC3)n2)c(F)c1` [Reference Compound A, reference compound]: in series [5] (3 mg/kg PO (0.3 mg/mL)), the area under the curve AUC(0-t) came out at 60.6 ± 9.01 ng·h/mL, the concentration peaked (Cmax) at 37.7 ± 8.09 ng/mL and the half-life is 2 ± 1.07 h. Moreover, in series [5] (3 mg/kg PO (0.6 mg/mL)), the AUC(0-t) was found to be 121 ± 36.9 ng·h/mL, the highest concentration (Cmax) amounted to 102 ± 57 ng/mL and the half-life is 1.68 ± 0.44 h. In series [1], this compound had an intrinsic metabolic clearance (CLint scaled) at 1 μM of 7.18 ± 0.45 mL/min/kg and a half-life at 1 μM of 5.79 ± 0.379 h. The Papp at 120 min, 5 μM in series [2] stood at 15.5 ×10⁻⁶ cm/s. In series [3], the intrinsic clearance (CLint scaled) at 1 μM stood at 48.2 ± 1.33 mL/min/kg and the half-life at 1 μM was determined as 1.21 ± 0.0425 h.

In series [1], `N#Cc1ccc(COc2cccc(N3CCN(Cc4nc5ccc(C(=O)O)cc5n4Cc4cncs4)CC3)n2)c(F)c1` [Compound 30] yielded an intrinsic metabolic clearance (CLint scaled) at 1 μM of 7.18 ± 0.31 mL/min/kg and a half-life at 1 μM of 5.58 ± 0.244 h. In series [2], the efflux ratio at 120 min, 5 μM turned out to be 2.14 and the Papp at 120 min, 5 μM was determined as 9.41 ×10⁻⁶ cm/s. In series [3], this compound gave a CLint scaled at 1 μM of 32.5 ± 0.73 mL/min/kg and a half-life at 1 μM of 1.71 ± 0.0383 h. In addition, in series [4], the “CLint relative to reference standard” value is recorded as “significantly lower” and the “Half-life relative to reference” value is on record as “significantly higher”.

With `Cc1ncsc1Cn1c(CN2CCC(c3cccc(OCc4ccc(C#N)cc4F)n3)CC2)nc2ccc(C(=O)O)cc21` [Compound 4], in series [5] (3 mg/kg PO (0.3 mg/mL)), the AUC(0-t) was found to be 28.3 ± 21.7 ng·h/mL, the maximum concentration (Cmax) was found to be 21.6 ± 9.8 ng/mL and the half-life was 0.96 ± 0.33 h. In series [1], this compound had a CLint scaled at 1 μM of 24.3 ± 0.74 mL/min/kg and a half-life at 1 μM of 1.66 ± 0.0508 h. In series [2], the efflux ratio at 120 min, 5 μM was found to be 0.975 and the Papp at 120 min, 5 μM was 49.9 ×10⁻⁶ cm/s. In series [3], the intrinsic clearance (CLint scaled) at 1 μM was 36 ± 1.36 mL/min/kg and the half-life at 1 μM came out at 1.62 ± 0.0477 h. Also, in series [4], the “CLint relative to reference standard” value is “significantly lower” and the “Half-life relative to reference” value is “significantly higher”.

Take `N#Cc1ccc(COc2ccnc(C3CCN(Cc4nc5ccc(C(=O)O)cc5n4Cc4cncs4)CC3)n2)c(F)c1` [Compound 20]: in series [1], the intrinsic clearance (CLint scaled) at 1 μM is 10.6 ± 0.66 mL/min/kg and the half-life at 1 μM turned out to be 3.82 ± 0.241 h. Also, in series [2], the efflux ratio at 120 min, 5 μM turned out to be 9.77 and the apparent permeability (Papp) at 120 min, 5 μM turned out to be 2.82 ×10⁻⁶ cm/s. In addition, in series [3], the CLint scaled at 1 μM is 38.9 ± 1.14 mL/min/kg and the half-life at 1 μM was determined as 1.49 ± 0.044 h. Further, in series [4], the “CLint relative to reference standard” value is “significantly lower” and the “Half-life relative to reference” value is on record as “significantly higher”.

In the case of `N#Cc1ccc(COc2cccc(C3CCN(Cc4nc5ccc(C(=O)O)cc5n4Cc4cncs4)CC3)n2)c(F)c1` [Compound 2], in series [5] (3 mg/kg PO (0.3 mg/mL)), the AUC(0-t) is 384 ± 182 ng·h/mL, the Cmax was found to be 117 ± 61 ng/mL and the half-life was 3.3 ± 0.44 h. In series [5] (3 mg/kg PO (0.6 mg/mL)), the AUC(0-t) amounted to 525 ± 138 ng·h/mL, the peak concentration (Cmax) is 491 ± 256 ng/mL and the half-life was 2.66 ± 1.74 h. The “PK properties relative to Reference Compound A” value in series [5] (dosed orally) is “significantly enhanced PK properties”. In addition, the “higher AUC relative to Reference Compound A” value in series [5] (oral administration) is recorded as 4-6 fold. In series [1], this compound gave a CLint scaled at 1 μM of 15.5 ± 0.82 mL/min/kg and a half-life at 1 μM of 2.61 ± 0.154 h. In addition, in series [2], the efflux ratio at 120 min, 5 μM worked out at 1.66 and the apparent permeability coefficient (Papp) at 120 min, 5 μM worked out at 31.5 ×10⁻⁶ cm/s. In series [3], this compound yielded an intrinsic metabolic clearance (CLint scaled) at 1 μM of 42.6 ± 2.46 mL/min/kg and a half-life at 1 μM of 1.32 ± 0.083 h. The “CLint relative to reference standard” value in series [4] is recorded as “not significantly different”.

Usually CLint scaled stands for a measure of how fast metabolising enzymes remove a compound, apart from limits set by blood flow. The low end stands for greater metabolic stability, the high end for faster metabolism. The half-life is the time in which the quantity being followed falls by half. Low readings indicate fast loss, high ones slow loss. By Papp is commonly meant the rate of passage across a membrane or cell layer, normalised by area and donor concentration. Broadly, the AUC(0-t) is the area under the concentration-time curve up to a stated or last time point. The low end stands for less exposure, the high end for more exposure. For orientation: Cmax means the maximum level reached in the sampled fluid or tissue.
